Experimental findings from US8937184B2, “1H-imidazole derivatives as cannabinoid CB2 receptor modulators” (Abbvie B.V., priority 2005, dated 2015) are described below.

Data set [1] concerns the target T1, human cannabinoid CB2 receptor (Homo sapiens, UniProt P34972).
T1 construct: expressed in transfected cells; host or cells: Chinese hamster ovary (CHO) cells, membrane preparation
Put plainly: In vitro affinity for cannabinoid-CB2 receptors ([3H]CP-55,940 radioligand binding, CHO cell membranes). As for the experimental part:
The affinity of the compounds of the invention for cannabinoid CB2 receptors can be determined using membrane preparations of Chinese hamster ovary (CHO) cells in which the human cannabinoid CB2 receptor is stably transfected in conjunction with [^3H]CP-55,940 as radioligand. After incubation of a freshly prepared cell membrane preparation with the [^3H]-ligand, with or without addition of compounds of the invention, separation of bound and free ligand is performed by filtration over glassfiber filters. Radioactivity on the filter is measured by liquid scintillation counting.
The affinity of the compounds of the invention for cannabinoid CB2 receptors was determined as described above. From the binding affinity measured for a given compound of formula (I), one can estimate a theoretical lowest effective dose. At a concentration of the compound equal to twice the measured Ki-value, […] of the cannabinoid CB2 receptors likely will be occupied by the compound. Converting that concentration to mg of compound per kg of patient yields a theoretical lowest effective dose, assuming ideal bioavailability. Pharmacokinetic, pharmacodynamic, and other considerations may alter the dose actually administered to a higher or lower value. The dosage expediently administered is 0.001-1000 mg/kg, such as 0.1-100 mg/kg of patient's bodyweight.

The target of data set [2] is T2, human cannabinoid CB1 receptor (Homo sapiens, UniProt P21554).
T2 construct: expressed in transfected cells; host or cells: Chinese hamster ovary (CHO) cells, membrane preparation
The experiment in a line: In vitro affinity for cannabinoid-CB1 receptors ([3H]CP-55,940 radioligand binding, CHO cell membranes). As for the experimental part:
The affinity of the compounds of the invention for cannabinoid CB1 receptors can be determined using membrane preparations of Chinese hamster ovary (CHO) cells in which the human cannabinoid CB1 receptor is stably transfected in conjunction with [^3H]CP-55,940 as radioligand. After incubation of a freshly prepared cell membrane preparation with the [^3H]-ligand, with or without addition of compounds of the invention, separation of bound and free ligand is performed by filtration over glassfiber filters. Radioactivity on the filter is measured by liquid scintillation counting.

Setting [3] is: membranes of CHO cells stably transfected with human CB2 receptor, [3H]CP-55,940 radioligand, read-out: Human cannabinoid-CB2 receptor In vitro affinity - pKi value (converted).

Like-named read-outs stand apart in the source and are kept apart here.

T2 sequence (P21554 whole entry): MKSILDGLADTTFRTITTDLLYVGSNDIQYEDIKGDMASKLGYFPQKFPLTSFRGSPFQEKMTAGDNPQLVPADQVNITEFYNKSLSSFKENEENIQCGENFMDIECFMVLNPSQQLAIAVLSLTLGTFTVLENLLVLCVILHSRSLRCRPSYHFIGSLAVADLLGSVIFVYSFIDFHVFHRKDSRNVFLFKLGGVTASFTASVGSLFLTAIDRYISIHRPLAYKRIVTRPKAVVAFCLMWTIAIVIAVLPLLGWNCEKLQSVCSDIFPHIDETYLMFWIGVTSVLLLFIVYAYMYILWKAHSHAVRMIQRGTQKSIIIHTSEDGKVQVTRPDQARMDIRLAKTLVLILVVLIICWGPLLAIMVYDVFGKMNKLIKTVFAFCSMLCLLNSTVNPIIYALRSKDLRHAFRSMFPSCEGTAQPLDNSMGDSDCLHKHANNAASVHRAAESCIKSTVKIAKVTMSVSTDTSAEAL
T1 sequence (P34972 whole entry): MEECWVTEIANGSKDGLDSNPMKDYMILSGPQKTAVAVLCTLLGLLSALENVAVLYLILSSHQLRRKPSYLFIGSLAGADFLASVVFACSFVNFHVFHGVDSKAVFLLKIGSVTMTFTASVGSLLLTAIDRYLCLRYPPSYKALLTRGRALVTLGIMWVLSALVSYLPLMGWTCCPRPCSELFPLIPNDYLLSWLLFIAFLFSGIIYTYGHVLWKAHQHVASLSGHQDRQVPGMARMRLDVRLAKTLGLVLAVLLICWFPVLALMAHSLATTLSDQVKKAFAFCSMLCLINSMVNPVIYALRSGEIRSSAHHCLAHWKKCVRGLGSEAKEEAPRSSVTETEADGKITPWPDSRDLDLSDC

In data set [1], `Cc1nc(C(=O)NC2CCCCCCC2)c(C)n1-c1ccccc1` [Compound 72] showed a Ki of 5.01 nM.
As a reminder, the melting point is the temperature, or range, at which the solid turns liquid. As to `O=C(NC12CC3CC(CC(C3)C1)C2)c1nc(Br)n(-c2ccccc2)c1Br`, the melting point was 228 to 231 °C.
`Cc1nc(C(=O)NC2C3CC4CC(C3)CC2C4)c(C)n1-c1ccccc1` (stereo not drawn) [Compound 49] returned a melting point of 245 to 247 °C. For the same compound, the Ki in data set [2] is more than 1000 nM. For the same compound, the Ki in data set [1] was 2.51 nM.
For the compound `Cc1nc(C(=O)NC23CC4CC(CC(C4)C2)C3)c(C)n1-c1ccccc1` [Compound 11], the Ki in data set [2] was more than 1000 nM; in data set [1] it was 1 nM.
As for `O=C(NC12CC3CC(CC(C3)C1)C2)c1cn(-c2ccccc2)cn1` [Compound 6], the melting point lay within 198 to 200 °C.
Same read-out and setting: the value for `Cc1c(C(=O)NC23CC4CC(CC(C4)C2)C3)ncn1-c1ccccc1` [Compound 2] was 214 to 219 °C.
Compound `Cc1nc(C(=O)NCc2ccccc2C(F)(F)F)c(C)n1-c1ccccc1` [Compound 44] displayed a melting point of 76 to 79 °C. Besides, in data set [1] (setting [3]), the Ki was 1.58 nM.
`Cc1c(C(=O)NC23CC4CC(CC(C4)C2)C3)ncn1Cc1ccccc1` came in with a melting point of 182 to 184 °C.
Regarding `Cc1nc(C(=O)N[C@@H]2C(C)(C)C3CC[C@@]2(C)C3)c(C)n1-c1ccccc1`, the melting point is 130 to 132 °C.
Still for that read-out and setting: the value for `Cc1c(C(=O)Nc2cccc3ccccc23)ncn1-c1ccccc1` was 167 to 169 °C.
On the same count and under the same terms, the same measure for `CCc1nc(C(=O)Nc2cccc3ccccc23)c(CC)n1-c1ccccc1`: 123 to 125 °C.
On to `Cc1nc(C(=O)Nc2ccnc3cc(C(F)(F)F)ccc23)c(C)n1-c1ccccc1`, for which the melting point amounted to 198.5 °C.
Consider “N-[(1R,2S,5R)-rel-6,6-dimethylbicyclo[3.1.1]heptan-2-methyl]-5-methyl-1-phenyl-1H-imidazole-4-carboxamide [Compound 1]”, for which the “Human cannabinoid-CB1 receptor In vitro affinity - pKi” value in data set [2] (membranes of CHO cells stably transfected with human CB1 receptor, [3H]CP-55,940 radioligand) was less than 6.0. Also, the “Human cannabinoid-CB2 receptor In vitro affinity - pKi value” in data set [1] (membranes of CHO cells stably transfected with human CB2 receptor, [3H]CP-55,940 radioligand) came to 7.3.
Regarding `CCc1nc(C(=O)NC23CC4CC(CC(C4)C2)C3)cn1-c1ccccc1` [Compound 20], the Ki in data set [2] was 251 nM; in data set [1], 10 nM.
`Cc1c(C(=O)N[C@H]2C[C@H]3CC[C@]2(C)C3(C)C)ncn1-c1ccccc1` [Compound 4] showed a melting point of 209 to 212 °C.
Consider `CCCCCn1cnc(C(=O)N[C@@H](Cc2ccccc2)C(=O)OC)c1` [BMS-III, reference compound], for which the Ki in data set [1] is 63.1 nM.
On to `O=C(NC12CC3CC(CC(C3)C1)C2)c1ncn(-c2ccccc2)c1Br` [Compound 27, N-(adamant-1-yl)-5-bromo-1-phenyl-1H-imidazole-4-carboxamide], for which the melting point was 229 to 232 °C.
As to `Cc1nc(C(=O)NC23CC4CC(CC(O)(C4)C2)C3)c(C)n1-c1ccccc1` [Compound 48, N-(3 hydroxyadamant-1-yl)-2,5-dimethyl-1-phenyl-1H-imidazole-4-carboxamide], the melting point is 215 to 220 °C.
On the same count and under the same terms, the value for `Cc1c(C(=O)N[C@H]2C(C)(C)[C@H]3CC[C@]2(C)C3)ncn1CCCNS(C)(=O)=O` was 149 to 156 °C; that for `Cc1nc(C(=O)NN2CCCCC2)c(C)n1-c1ccccc1` was 117 to 118 °C.
Compound `Cc1nc(C(=O)NC23CC4CC(CC(C4)C2)C3)c(Cl)n1-c1ccccc1` [Compound 33] showed a Ki in data set [1] of 7.94 nM.
The compound `O=C(NC12CC3CC(CC(C3)C1)C2)c1nc(Cl)n(-c2ccccc2)c1Cl` registered a melting point of 172 to 173 °C.
With `Cc1nc(C(=O)NC23CC4CC(CC(C4)C2)C3)c(C)n1C1CCCCC1` [Compound 14], the Ki is more than 1000 nM in data set [2] and 6.31 nM in data set [1].
Take `Cc1nc(C(=O)NC23CC4CC(CC(C4)C2)C3)cn1-c1ccccc1` [Compound 8, N-adamantyl-2-methyl-1-phenyl-1H-imidazole-4-carboxamide]: the melting point was in the range of 207 to 210 °C.
Regarding `Cc1nc(C(=O)Nc2cccc(Cl)c2Cl)c(C)n1-c1ccccc1` [Compound 65, N-(2,3-dichlorophenyl)-2,5-dimethyl-1-phenyl-1H-imidazole-4-carboxamide], the melting point fell in the range of 127 to 129 °C.
On to `CCCCCCC(=O)c1nc(C)n(-c2ccccc2)c1C` [Compound 26], for which the Ki in data set [1] (setting [3]) was 158 nM.
The compound `Cc1c(C(=O)NC23CC4CC(CC(C4)C2)C3)nc(C(F)(F)F)n1-c1ccccc1` [Compound 64] had a melting point of 170 to 172 °C.
In turn, `Cc1nc(C(=O)Nc2cccc3ncccc23)c(C)n1-c1ccccc1` [Compound 46] had a melting point of 139 to 141 °C.
`Cc1nc(C(=O)Nc2ccc(C#N)c3ccccc23)c(C)n1-c1ccccc1` had a melting point of 241.5 °C.
In turn, `Cc1c(C(=O)N[C@H]2C(C)(C)[C@H]3CC[C@]2(C)C3)ncn1-c1ccccc1` yielded a melting point of 149 to 152 °C.
The same measure, in the same setting: the same measure for `Cc1nc(C(=O)Nc2cccc3ccccc23)c(C)n1-c1ccccc1.Cl`: 177 to 179 °C.
In data set [1], `COC(=O)[C@H](Cc1ccccc1)NC(=O)c1cn(CCOc2ccccc2)cn1` [BMS-I, reference compound] gave a Ki of 398 nM.
`Cc1nc(C(=O)NC23CC4CC(CC(C4)C2)C3)c(C)n1-c1ccc2c(c1)OCCO2.Cl`: the melting point was 221 to 223 °C.
With `O=C(NC1C2CC3CC(C2)CC1C3)c1cn(-c2ccccc2)cn1` (stereo not drawn) [Compound 7], the melting point lay within 232 to 234 °C.
For `CCc1c(C(=O)NC23CC4CC(CC(C4)C2)C3)nc(C)n1-c1ccccc1` [Compound 15], the Ki in data set [2] is 631 nM; in data set [1] it was less than 1 nM.
Turning to `Cc1nc(C(=O)NC23CC4CC(CC2C4)C3)c(C)n1-c1ccccc1`, the melting point was in the range of 147 to 150 °C.
As to `CCCCc1c(C(=O)NC23CC4CC(CC(C4)C2)C3)nc(C)n1-c1ccccc1`, the melting point is 171 to 172 °C.
Same read-out and setting: the same measure for `Cc1nc(C(=O)NCC2CCC3C(C)(C)C34CC24)cn1-c1ccccc1` (stereo not drawn) [Compound 9]: 124 to 127 °C.
In the case of `COC(=O)[C@H](Cc1ccccc1)NC(=O)c1cn(CCN2CCOCC2)cn1` [BMS-II, reference compound], the Ki in data set [1] is more than 1000 nM.
Regarding `COc1cccc(-n2c(C)nc(C(=O)NCC3CCC4C(C)(C)C45CC35)c2C)c1` (stereo not drawn) [Compound 12], the melting point lay in the range of 153 to 155 °C.
For `Cc1nc(C(=O)NC23CC4CC(CC(C4)C2)C3)c(Br)n1-c1ccccc1` [Compound 33A], the Ki in data set [2] (membranes of CHO cells stably transfected with human CB1 receptor, [3H]CP-55,940 radioligand, read-out: Human cannabinoid-CB1 receptor In vitro affinity - pKi (converted)) was 794 nM; in data set [1] it was 6.31 nM.
For `Cc1c(C(=O)NCC2CCC3C(C)(C)C34CC24)ncn1CCCNS(C)(=O)=O` (stereo not drawn) [Compound 22], the melting point lay within 84 to 108 °C.
